For ten compounds, EC50 results are on record in patent US10064873B2, “Compounds and compositions for treating HIV with derivatives of Betulin” (GlaxoSmithKline LLC, priority 2011, dated 2018).

Usually EC50 stands for the concentration needed to bring the measured effect to its halfway point.

One experiment relates to HIV NL4-3 wt. The experiment is described as follows: MT4 antiviral assay, NL4-3 strain wild type. The experiment is classed as cell-based, HIV-1. Conditions: Human immunodeficiency virus 1, NL43, MT4, read-out: EC50 NL4-3 wt (nM).
For the compound `CC(C)C1=C2[C@H]3CC[C@@H]4[C@@]5(C)CC[C@H](OC(=O)CC(C)(C)C(=O)O)C(C)(C)[C@@H]5CC[C@@]4(C)[C@]3(C)CC[C@@]2(CCNCc2cccc(Cl)c2)CC1=O` [Example 7, 4-(((3aR,5aR,5bR,7aR,9S,11aR,11bR,13aS)-3a-(2-((3-Chlorobenzyl)amino)ethyl)-1-isopropyl-5a,5b,8,8,11a-pentamethyl-2-oxo-3,3a,4,5,5a,5b,6,7,7a,8,9,10,11,11a,11b,12,13,13a-octadecahydro-2H-cyclopenta[a]chrysen-9-yl)oxy)-2,2-dimethyl-4-oxobutanoic acid], the EC50 was found to be 6.1 nM.

Staying with this experiment, now noted: Human immunodeficiency virus 1, NL43; MT4 cells; read-out: EC50 NL4-3 wt.
On to `CC(C)C1=C2[C@H]3CC[C@@H]4[C@@]5(C)CC[C@H](OC(=O)CC(C)(C)C(=O)O)C(C)(C)[C@@H]5CC[C@@]4(C)[C@]3(C)CC[C@@]2([C@H](CNCc2ccc(Cl)cc2)OC(=O)CC(C)(C)C(=O)O)CC1=O` [Example 1, 4-((R)-1-((3aR,5aR,5bR,7aR,9S,11aR,11bR,13aS)-9-((3-carboxy-3-methylbutanoyl)oxy)-1-isopropyl-5a,5b,8,8,11a-pentamethyl-2-oxo-3,3a,4,5,5a,5b,6,7,7a,8,9,10,11,11a,11b,12,13,13a-octadecahydro-2H-cyclopenta[a]chrysen-3a-yl)-2-((4-chlorobenzyl)amino)ethoxy)-2,2-dimethyl-4-oxobutanoic acid], for which the EC50 stood at 41.1 nM.

As for `CC(C)C1=C2[C@H]3CC[C@@H]4[C@@]5(C)CC[C@H](OC(=O)CC(C)(C)C(=O)O)C(C)(C)[C@@H]5CC[C@@]4(C)[C@]3(C)CC[C@@]2([C@H](O)CNCc2ccccc2Cl)CC1=O` [Example 24, 4-(((3aR,5aR,5bR,7aR,9S,11aR,11bR,13aS)-3a-((S)-2-((2-Chlorobenzyl)amino)-1-hydroxyethyl)-1-isopropyl-5a,5b,8,8,11a-pentamethyl-2-oxo-3,3a,4,5,5a,5b,6,7,7a,8,9,10,11,11a,11b,12,13,13a-octadecahydro-2H-cyclopenta[a]chrysen-9-yl)oxy)-2,2-dimethyl-4-oxobutanoic acid], the EC50 was 40.4 nM.

As for `CC(C)C1=C2[C@H]3CC[C@@H]4[C@@]5(C)CC[C@H](OC(=O)CC(C)(C)C(=O)O)C(C)(C)[C@@H]5CC[C@@]4(C)[C@]3(C)CC[C@@]2([C@@H](CNCc2ccc(Cl)cc2)OC(=O)CC(C)(C)C(=O)O)CC1=O` [Example 3, 4-[(1S)-1-[(1R,2R,5R,10S,13R,14R, 17S,19R)-17-[(3-carboxy-3,3-dimethylpropanoyl)oxy]-1,2,14,18,18-pentamethyl-7-oxo-8-(propan-2-yl)pentacyclo[11.8.0.0^ {2,10}.0^{5,9}.0^{14,19}]henicos-8-en-5-yl]-2-{[(4-chlorophenyl)methyl]amino}ethoxy]-2,2-dimethyl-4-oxobutanoic acid], the EC50 turned out to be 61.7 nM.

`CC(C)C1=C2[C@H]3CC[C@@H]4[C@@]5(C)CC[C@H](OC(=O)CC(C)(C)C(=O)O)C(C)(C)[C@@H]5CC[C@@]4(C)[C@]3(C)CC[C@@]2([C@@H](O)CN(CCN(C)C)C(=O)c2ccc(Cl)cc2)CC1=O` [Example 81, 4-{[(1R,2R,5R,10S,13R,14R, 17S,19R)-5-[(1R)-2-[1-(4-chlorophenyl)-N-[2-(dimethylamino)ethyl] formamido]-1-hydroxyethyl]-1,2,14,18,18-pentamethyl-7-oxo-8-(propan-2-yl)pentacyclo[11.8.0.0^ {2,10}.0^{5,9}.0^{14,19}]henicos-8-en-17-yl]oxy}-2,2-dimethyl-4-oxobutanoic acid]: the EC50 turned out to be 3 nM.

For `CC(C)C1=C2[C@H]3CC[C@@H]4[C@@]5(C)CC[C@H](OC(=O)CC(C)(C)C(=O)O)C(C)(C)[C@@H]5CC[C@@]4(C)[C@]3(C)CC[C@@]2([C@H](O)CN(CCN(C)C)Cc2ccc(F)cc2)CC1=O` [Example 78, 4-(((3aR,5aR,5bR,7aR,9S,11aR,11bR,13aS)-3a-((S)-2-((2-(dimethylamino)ethyl)(4-fluorobenzyl)amino)-1-hydroxyethyl)-1-isopropyl-5a,5b,8,8,11a-pentamethyl-2-oxo-3,3a,4,5,5a,5b,6,7,7a,8,9,10,11,11a,11b,12,13,13a-octadecahydro-2H-cyclopenta[a]chrysen-9-yl)oxy)-2,2-dimethyl-4-oxobutanoic acid], the EC50 was 2.1 nM.

Take `CC(C)C1=C2[C@H]3CC[C@@H]4[C@@]5(C)CC[C@H](OC(=O)CC(C)(C)C(=O)O)C(C)(C)[C@@H]5CC[C@@]4(C)[C@]3(C)CC[C@@]2([C@@H](O)CN(C)Cc2ccc(Cl)cc2)CC1=O` [Example 31, 4-(((3aR,5aR,5bR,7aR,9S,11aR,11bR,13aS)-3a-((R)-2-((4-Chlorobenzyl)(methyl)amino)-1-hydroxyethyl)-1-isopropyl-5a,5b,8,8,11a-pentamethyl-2-oxo-3,3a,4,5,5a,5b,6,7,7a,8,9,10,11,11a,11b,12,13,13a-octadecahydro-2H-cyclopenta[a]chrysen-9-yl)oxy)-2,2-dimethyl-4-oxobutanoic acid]: the EC50 came to 5.4 nM.

In the case of `CC(=O)N(Cc1ccccc1Cl)C[C@@H](O)[C@@]12CC[C@]3(C)[C@H](CC[C@@H]4[C@@]5(C)CC[C@H](OC(=O)CC(C)(C)C(=O)O)C(C)(C)[C@@H]5CC[C@]43C)C1=C(C(C)C)C(=O)C2` [Example 35, 4-(((3aR,5aR,5bR,7aR,9S,11aR,11bR,13aS)-3a-((S)-2-(N-(2-Chlorobenzyl)acetamido)-1-hydroxyethyl)-1-isopropyl-5a,5b,8,8,11a-pentamethyl-2-oxo-3,3a,4,5,5a,5b,6,7,7a,8,9,10,11,11a,11b,12,13,13a-octadecahydro-2H-cyclopenta[a]chrysen-9-yl)oxy)-2,2-dimethyl-4-oxobutanoic acid], the EC50 worked out at 4.2 nM.

On to `CC(C)C1=C2[C@H]3CC[C@@H]4[C@@]5(C)CC[C@H](OC(=O)CC(C)(C)C(=O)O)C(C)(C)[C@@H]5CC[C@@]4(C)[C@]3(C)CC[C@@]2(CCNC2(c3ccc(Cl)cc3)CC2)CC1=O` [Example 9, 4-(((3aR,5aR,5bR,7aR,9S,11aR,11bR,13aS)-3a-(2-((1-(4-chlorophenyl)cyclopropyl)amino)ethyl)-1-isopropyl-5a,5b,8,8,11a-pentamethyl-2-oxo-3,3a,4,5,5a,5b,6,7,7a,8,9,10,11,11a,11b,12,13,13a-octadecahydro-2H-cyclopenta[a]chrysen-9-yl)oxy)-2,2-dimethyl-4-oxobutanoic acid], for which the EC50 stood at 12.3 nM.

`CC(=O)O[C@H](CNCc1ccc(Cl)cc1)[C@@]12CC[C@]3(C)[C@H](CC[C@@H]4[C@@]5(C)CC[C@H](OC(=O)CC(C)(C)C(=O)O)C(C)(C)[C@@H]5CC[C@]43C)C1=C(C(C)C)C(=O)C2` [Example 17, 4-(((3aR,5aR,5bR,7aR,9S,11aR,11bR,13aS)-3a-((S)-1-Acetoxy-2-((4-chlorobenzyl)amino)ethyl)-1-isopropyl-5a,5b,8,8,11a-pentamethyl-2-oxo-3,3a,4,5,5a,5b,6,7,7a,8,9,10,11,11a,11b,12,13,13a-octadecahydro-2H-cyclopenta[a]chrysen-9-yl)oxy)-2,2-dimethyl-4-oxobutanoic acid]: the EC50 came out at 8.7 nM.
